Laboratory results from the NIST ThermoML archive (doi:10.1021/acs.jced.7b00494).
± gives the expanded uncertainty stated by the source.

Test: mn = molality of the nth substance listed, in mol/kg
Details: 99.6 kPa, Liquid; for kinematic viscosity: Capillary tube (Ostwald / Ubbelohde) method; for mass density: Vibrating tube method

CNC(C)=O [N-methylacetamide] + [Ca+2].[Cl-].[Cl-]
kinematic viscosity (308.15 K, m2 = 0): 3.79e-06 ± 4.6e-08 m2/s
kinematic viscosity (308.15 K, m2 = 0.00398): 3.81e-06 ± 4.7e-08 m2/s
kinematic viscosity (308.15 K, m2 = 0.01042): 3.83e-06 ± 4.7e-08 m2/s
kinematic viscosity (308.15 K, m2 = 0.04232): 4.04e-06 ± 5e-08 m2/s
kinematic viscosity (308.15 K, m2 = 0.05605): 4.13e-06 ± 5.1e-08 m2/s
kinematic viscosity (308.15 K, m2 = 0.08536): 4.34e-06 ± 5.3e-08 m2/s
kinematic viscosity (308.15 K, m2 = 0.1022): 4.47e-06 ± 5.5e-08 m2/s
kinematic viscosity (308.15 K, m2 = 0.1314): 4.7e-06 ± 5.8e-08 m2/s
kinematic viscosity (308.15 K, m2 = 0.1539): 4.89e-06 ± 6e-08 m2/s
kinematic viscosity (308.15 K, m2 = 0.1613): 4.95e-06 ± 6.1e-08 m2/s
kinematic viscosity (308.15 K, m2 = 0.1719): 5.03e-06 ± 6.2e-08 m2/s
kinematic viscosity (308.15 K, m2 = 0.1998): 5.26e-06 ± 6.4e-08 m2/s
kinematic viscosity (308.15 K, m2 = 0.2219): 5.46e-06 ± 6.7e-08 m2/s
kinematic viscosity (308.15 K, m2 = 0.2578): 5.79e-06 ± 7.1e-08 m2/s
kinematic viscosity (308.15 K, m2 = 0.3546): 6.92e-06 ± 8.4e-08 m2/s
mass density (308.15 K, m2 = 0): 945.85 ± 1.9 kg/m3
mass density (308.15 K, m2 = 0.00398): 946.1 ± 1.9 kg/m3
mass density (308.15 K, m2 = 0.01042): 946.61 ± 1.9 kg/m3
mass density (308.15 K, m2 = 0.04232): 948.77 ± 1.9 kg/m3
mass density (308.15 K, m2 = 0.05605): 949.67 ± 1.9 kg/m3
mass density (308.15 K, m2 = 0.08536): 951.77 ± 1.9 kg/m3
mass density (308.15 K, m2 = 0.1022): 953.01 ± 1.9 kg/m3
mass density (308.15 K, m2 = 0.1314): 954.97 ± 1.9 kg/m3
mass density (308.15 K, m2 = 0.1539): 956.57 ± 1.9 kg/m3
mass density (308.15 K, m2 = 0.1613): 957.09 ± 1.9 kg/m3
mass density (308.15 K, m2 = 0.1719): 957.84 ± 1.9 kg/m3
mass density (308.15 K, m2 = 0.1998): 959.8 ± 1.9 kg/m3
mass density (308.15 K, m2 = 0.2219): 961.27 ± 1.9 kg/m3
mass density (308.15 K, m2 = 0.2578): 964 ± 1.9 kg/m3
mass density (308.15 K, m2 = 0.3546): 970.82 ± 1.9 kg/m3
kinematic viscosity (313.15 K, m2 = 0): 3.35e-06 ± 4.1e-08 m2/s
kinematic viscosity (313.15 K, m2 = 0.00398): 3.38e-06 ± 4.2e-08 m2/s
kinematic viscosity (313.15 K, m2 = 0.01042): 3.41e-06 ± 4.2e-08 m2/s
kinematic viscosity (313.15 K, m2 = 0.04232): 3.59e-06 ± 4.4e-08 m2/s
kinematic viscosity (313.15 K, m2 = 0.05605): 3.67e-06 ± 4.5e-08 m2/s
kinematic viscosity (313.15 K, m2 = 0.08536): 3.83e-06 ± 4.7e-08 m2/s
kinematic viscosity (313.15 K, m2 = 0.1022): 3.95e-06 ± 4.8e-08 m2/s
kinematic viscosity (313.15 K, m2 = 0.1314): 4.15e-06 ± 5.1e-08 m2/s
kinematic viscosity (313.15 K, m2 = 0.1539): 4.31e-06 ± 5.3e-08 m2/s
kinematic viscosity (313.15 K, m2 = 0.1613): 4.35e-06 ± 5.3e-08 m2/s
kinematic viscosity (313.15 K, m2 = 0.1719): 4.42e-06 ± 5.4e-08 m2/s
kinematic viscosity (313.15 K, m2 = 0.1998): 4.63e-06 ± 5.7e-08 m2/s
kinematic viscosity (313.15 K, m2 = 0.2219): 4.8e-06 ± 5.9e-08 m2/s
kinematic viscosity (313.15 K, m2 = 0.2578): 5.1e-06 ± 6.2e-08 m2/s
kinematic viscosity (313.15 K, m2 = 0.3546): 6.01e-06 ± 7.3e-08 m2/s
mass density (313.15 K, m2 = 0): 941.63 ± 1.9 kg/m3
mass density (313.15 K, m2 = 0.00398): 941.91 ± 1.9 kg/m3
mass density (313.15 K, m2 = 0.01042): 942.38 ± 1.9 kg/m3
mass density (313.15 K, m2 = 0.04232): 944.56 ± 1.9 kg/m3
mass density (313.15 K, m2 = 0.05605): 945.49 ± 1.9 kg/m3
mass density (313.15 K, m2 = 0.08536): 947.59 ± 1.9 kg/m3
mass density (313.15 K, m2 = 0.1022): 948.87 ± 1.9 kg/m3
mass density (313.15 K, m2 = 0.1314): 950.79 ± 1.9 kg/m3
mass density (313.15 K, m2 = 0.1539): 952.41 ± 1.9 kg/m3
mass density (313.15 K, m2 = 0.1613): 952.96 ± 1.9 kg/m3
mass density (313.15 K, m2 = 0.1719): 953.69 ± 1.9 kg/m3
mass density (313.15 K, m2 = 0.1998): 955.68 ± 1.9 kg/m3
mass density (313.15 K, m2 = 0.2219): 957.26 ± 1.9 kg/m3
mass density (313.15 K, m2 = 0.2578): 959.75 ± 1.9 kg/m3
mass density (313.15 K, m2 = 0.3546): 966.61 ± 1.9 kg/m3
kinematic viscosity (318.15 K, m2 = 0): 2.99e-06 ± 3.7e-08 m2/s
kinematic viscosity (318.15 K, m2 = 0.00398): 3.02e-06 ± 3.7e-08 m2/s
kinematic viscosity (318.15 K, m2 = 0.01042): 3.04e-06 ± 3.7e-08 m2/s
kinematic viscosity (318.15 K, m2 = 0.04232): 3.19e-06 ± 3.9e-08 m2/s
kinematic viscosity (318.15 K, m2 = 0.05605): 3.25e-06 ± 4e-08 m2/s
kinematic viscosity (318.15 K, m2 = 0.08536): 3.4e-06 ± 4.2e-08 m2/s
kinematic viscosity (318.15 K, m2 = 0.1022): 3.49e-06 ± 4.3e-08 m2/s
kinematic viscosity (318.15 K, m2 = 0.1314): 3.67e-06 ± 4.5e-08 m2/s
kinematic viscosity (318.15 K, m2 = 0.1539): 3.8e-06 ± 4.7e-08 m2/s
kinematic viscosity (318.15 K, m2 = 0.1613): 3.85e-06 ± 4.7e-08 m2/s
kinematic viscosity (318.15 K, m2 = 0.1719): 3.9e-06 ± 4.8e-08 m2/s
kinematic viscosity (318.15 K, m2 = 0.1998): 4.08e-06 ± 5e-08 m2/s
kinematic viscosity (318.15 K, m2 = 0.2219): 4.24e-06 ± 5.2e-08 m2/s
kinematic viscosity (318.15 K, m2 = 0.2578): 4.5e-06 ± 5.5e-08 m2/s
kinematic viscosity (318.15 K, m2 = 0.3546): 5.32e-06 ± 6.5e-08 m2/s
